Assay results taken from ChEMBL document CHEMBL3044865, “Herbicidal Activity and Characteristics of Pyraflufen-ethyl for Controlling Broad-leaved Weeds in Cereals” (J Pestic Sci, 2002).
Activity calls are given as the source filed them. The rule behind the calls is not given here.

What was measured:
Veronica hederifolia [1] = assay: Herbicidal activity against Veronica hederaefolia assessed as killing at 1 g/ha post emergence application measured after 21 days after treatment; format: functional
Triticum aestivum [2] = assay: Phytotoxicity in Triticum aestivum (wheat) assessed as injury at 0.3 g/ha post emergence application measured after 21 days after treatment; format: organism-based; settings: in vivo, other, 504 h
Avena fatua [3] = assay: Herbicidal activity against Avena fatua assessed as killing at 0.3 g/ha post emergence application measured after 21 days after treatment; format: functional, organism-based
[4] = biological target: T1, Protoporphyrinogen IX oxidase (Cichorium intybus) (UniProt Q9SPL6); assay: Inhibition of Tripleurospermum maritimum subsp. inodorum protoporphyrinogen oxidase by post-emergence herbicidal activity assay
T1 sequence (whole entry): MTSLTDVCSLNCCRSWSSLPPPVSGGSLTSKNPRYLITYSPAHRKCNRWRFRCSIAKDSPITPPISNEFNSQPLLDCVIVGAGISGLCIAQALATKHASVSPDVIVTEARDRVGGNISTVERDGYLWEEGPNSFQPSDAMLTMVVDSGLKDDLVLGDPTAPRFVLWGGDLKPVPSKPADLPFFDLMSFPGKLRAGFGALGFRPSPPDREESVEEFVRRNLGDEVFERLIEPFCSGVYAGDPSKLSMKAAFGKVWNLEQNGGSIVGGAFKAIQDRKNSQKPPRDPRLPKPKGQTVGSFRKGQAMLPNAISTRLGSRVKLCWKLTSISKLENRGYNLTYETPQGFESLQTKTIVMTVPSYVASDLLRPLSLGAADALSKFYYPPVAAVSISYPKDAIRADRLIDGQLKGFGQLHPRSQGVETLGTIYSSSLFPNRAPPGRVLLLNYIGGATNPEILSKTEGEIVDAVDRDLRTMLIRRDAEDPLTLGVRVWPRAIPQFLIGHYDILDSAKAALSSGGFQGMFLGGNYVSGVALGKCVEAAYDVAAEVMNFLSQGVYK

Stellaria media [5] = assay: Herbicidal activity against Stellaria media assessed as killing at 100 g/ha post emergence application measured after 21 days after treatment; format: functional
Avena fatua [6] = assay: Herbicidal activity against Avena fatua assessed as killing at 100 g/ha post emergence application measured after 21 days after treatment; format: functional
Triticum aestivum [7] = assay: Phytotoxicity in Triticum aestivum (wheat) assessed as injury at 10 g/ha pre emergence application measured after 21 days after treatment; format: organism-based; settings: in vivo, other, 504 h
[8] = Ratio of compound ED90 to […] ED90 for herbicidal activity against Matricaria inodora
[9] = biological target: T2, Protoporphyrinogen oxidase 2 (Spinacia oleracea) (UniProt Q94IG7); assay: Inhibition of Stellaria media protoporphyrinogen oxidase by post-emergence herbicidal activity assay
T2 sequence (whole entry): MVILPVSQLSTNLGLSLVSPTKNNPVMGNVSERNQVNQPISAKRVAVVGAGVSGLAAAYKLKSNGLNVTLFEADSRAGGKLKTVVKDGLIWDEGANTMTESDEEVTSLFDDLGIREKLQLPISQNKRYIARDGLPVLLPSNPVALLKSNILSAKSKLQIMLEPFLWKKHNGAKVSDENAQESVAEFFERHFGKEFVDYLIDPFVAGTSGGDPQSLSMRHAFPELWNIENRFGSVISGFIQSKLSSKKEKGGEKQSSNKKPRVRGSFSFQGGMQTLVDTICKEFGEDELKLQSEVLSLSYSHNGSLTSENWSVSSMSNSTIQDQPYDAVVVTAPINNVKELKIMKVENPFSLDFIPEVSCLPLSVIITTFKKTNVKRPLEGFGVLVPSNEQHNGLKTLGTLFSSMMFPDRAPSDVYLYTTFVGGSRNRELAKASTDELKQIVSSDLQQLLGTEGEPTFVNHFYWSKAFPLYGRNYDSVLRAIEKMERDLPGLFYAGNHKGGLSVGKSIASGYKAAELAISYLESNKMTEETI

Hordeum vulgare = assay: Phytotoxicity in Hordeum vulgare (barley) assessed as injury at 1 g/ha post emergence application measured after 21 days after treatment; format: organism-based; settings: in vivo, other, 504 h
Viola arvensis [10] = assay: Herbicidal activity against Viola arvensis assessed as killing at 0.3 g/ha post emergence application measured after 21 days after treatment; format: functional
Triticum aestivum [11] = assay: Phytotoxicity in Triticum aestivum (wheat) assessed as injury at 1 g/ha post emergence application measured after 21 days after treatment; format: organism-based; settings: in vivo, other, 504 h
[12] = biological target: T3, Protoporphyrinogen oxidase (Medicago truncatula) (UniProt G7L3C0); assay: Inhibition of Viola arvensis protoporphyrinogen oxidase by post-emergence herbicidal activity assay
T3 sequence (whole entry): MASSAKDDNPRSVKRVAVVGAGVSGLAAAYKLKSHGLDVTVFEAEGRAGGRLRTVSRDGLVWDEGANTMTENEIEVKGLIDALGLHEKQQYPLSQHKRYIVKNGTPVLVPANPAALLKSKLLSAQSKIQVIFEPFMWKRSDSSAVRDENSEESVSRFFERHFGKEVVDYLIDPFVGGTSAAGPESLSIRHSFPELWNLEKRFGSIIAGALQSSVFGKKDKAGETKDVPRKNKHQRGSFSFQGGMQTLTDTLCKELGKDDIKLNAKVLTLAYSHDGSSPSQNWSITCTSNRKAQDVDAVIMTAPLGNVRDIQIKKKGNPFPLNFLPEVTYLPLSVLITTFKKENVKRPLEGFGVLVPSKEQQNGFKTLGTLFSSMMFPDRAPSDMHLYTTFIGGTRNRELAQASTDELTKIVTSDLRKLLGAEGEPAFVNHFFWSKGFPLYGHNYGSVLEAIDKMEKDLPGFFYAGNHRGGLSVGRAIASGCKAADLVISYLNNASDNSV

Galium aparine [13] = assay: Herbicidal activity against Galium aparine assessed as killing at 3 g/ha post emergence application measured after 21 days after treatment; format: functional
Galium aparine [14] = assay: Herbicidal activity against Galium aparine assessed as killing at 30 g/ha post emergence application measured after 21 days after treatment; format: functional
Triticum aestivum [15] = assay: Phytotoxicity in Triticum aestivum (wheat) assessed as injury at 3 g/ha post emergence application measured after 21 days after treatment; format: organism-based; settings: in vivo, other, 504 h
Stellaria media [16] = assay: Herbicidal activity against Stellaria media assessed as killing at 300 g/ha post emergence application measured after 21 days after treatment; format: functional
Veronica hederifolia [17] = assay: Herbicidal activity against Veronica hederaefolia assessed as killing at 30 g/ha post emergence application measured after 21 days after treatment; format: functional
Stellaria media [18] = assay: Herbicidal activity against Stellaria media assessed as killing at 30 g/ha post emergence application measured after 21 days after treatment; format: functional
Alopecurus myosuroides = assay: Herbicidal activity against Alopecurus myosuroides assessed as killing at 0.3 g/ha post emergence application measured after 21 days after treatment; format: functional, organism-based
Avena fatua [19] = assay: Herbicidal activity against Avena fatua assessed as killing at 10 g/ha post emergence application measured after 21 days after treatment; format: functional
Viola arvensis [20] = assay: Herbicidal activity against Viola arvensis assessed as killing at 3 g/ha post emergence application measured after 21 days after treatment; format: functional
Stellaria media [21] = assay: Ratio of compound ED90 to ioxynil ED90 for herbicidal activity against Stellaria media
Galium aparine [22] = assay: Herbicidal activity against Galium aparine assessed as killing at 300 g/ha post emergence application measured after 21 days after treatment; format: functional
Viola arvensis [23] = assay: Herbicidal activity against Viola arvensis assessed as killing at 10 g/ha pre emergence application measured after 21 days after treatment; format: functional
Avena fatua [24] = assay: Herbicidal activity against Avena fatua assessed as killing at 30 g/ha post emergence application measured after 21 days after treatment; format: functional, organism-based

SMILES: CCOC(=O)COc1cc(-c2nn(C)c(OC(F)F)c2Cl)c(F)cc1Cl [PYRAFLUFEN-ETHYL]
- Activity (Veronica hederifolia [1]): 90%
- Activity (Triticum aestivum [2]): Non-toxic
- Activity (Avena fatua [3]): inactive
- ED90 [4]: 0.3 gAi/ha
- Activity (Stellaria media [5]): 90%
- Activity (Avena fatua [6]): 1%
- Activity (Triticum aestivum [7]): Non-toxic
- Ratio [8]: 3330
- ED90 [9]: 0.3 gAi/ha
- Activity (Hordeum vulgare): Non-toxic
- Activity (Viola arvensis [10]): 21%
- Activity (Triticum aestivum [11]): Non-toxic
- ED90 [12]: 5 gAi/ha
- Activity (Galium aparine [13]): 100%
- Activity (Galium aparine [14]): 21%
- Activity (Triticum aestivum [15]): 1%
- Activity (Stellaria media [16]): 100%
- Activity (Veronica hederifolia [17]): 11%
- Activity (Stellaria media [18]): 40%
- Activity (Alopecurus myosuroides): inactive
- Activity (Avena fatua [19]): 21%
- Activity (Viola arvensis [20]): 80%
- Ratio (Stellaria media [21]): 166
- Activity (Galium aparine [22]): 50%
- Activity (Viola arvensis [23]): 11%
- Activity (Avena fatua [24]): inactive
